The values that follow are results of earlier work, collected in patent US7329690B2, “Effectiveness of invertebrate pest-control agents” (FMC Corporation, priority 2001, dated 2008).

Structures are written as SMILES.

In the case of `O=[N+]([O-])NC1=NCCN1Cc1ccc(Cl)nc1` [imidacloprid], the water solubility is 610 ppm.
